In ChEMBL document CHEMBL5360604, “Novel Dihydroorotate Dehydrogenase Inhibitors for Treating Acute Myelogenous Leukemia” (ACS Med Chem Lett, 2023):

The compounds below were run on MOLM-13 (assay: Antiproliferative activity against human MOLM-13 cells assessed as reduction in cell viability incubated for 72 hrs by CellTiter-Glo assay). Settings: MOLM-13, 72 h.
Type: functional, cell-based

Compound | IC50
Cc1cn(-c2cc(O[C@@H](C)C(F)(F)F)c(C(=O)Nc3c(C)n[nH]c3Cl)cc2F)nc1C(C)(C)O | 0.09 nM
Cc1cn(-c2cc(O[C@@H](C)C(F)(F)F)c(C(=O)Nc3c(F)cccc3Cl)cc2F)nc1[C@@H](C)O | 0.08 nM
Cc1cn(-c2cc(O[C@@H](C)C(F)(F)F)c(C(=O)Nc3c(C)n[nH]c3Cl)cc2F)nc1[C@H](C)O | 0.21 nM
Cc1cn(-c2cc(O[C@@H](C)C(F)(F)F)c(C(=O)Nc3c(F)cccc3Cl)cc2F)nc1C(C)(C)O | 0.07 nM

More lines, in order of falling IC50, values ahead:

IC50 | Compound
0.26 nM | Cc1cn(-c2cc(O[C@@H](C)C(F)(F)F)c(C(=O)Nc3c(C)n[nH]c3Cl)cc2F)nc1[C@@H](C)O
0.03 nM | Cc1cn(-c2cc(O[C@@H](C)C(F)(F)F)c(C(=O)Nc3c(F)cccc3Cl)cc2F)nc1[C@H](C)O
